Results reported in US10111890B2, “9-aminomethyl minocycline compounds and uses thereof” (Paratek Pharmaceuticals, Inc., priority 2016, dated 2018).
Like-named read-outs stand apart in the source and are kept apart here.

Legend:
[1] = Phase 1 food-effect crossover study: plasma PK after single 300 mg oral dose; type: in vivo, human; settings: for AUC(0-inf) / AUC(0-t) / Cmax / Tmax: plasma, po, 300 mg
Method: These meals were to be consumed within 20 minutes. Dose administration for Treatments B, C, and D was based off of the end time of the meal. […] Geometric means were determined for AUC and Cmax. PK parameters were evaluated using non-compartmental analysis using Phoenix® WinNonlin® (Pharsight Corp, St. Louis, Mo.), Version 6.2.1. Confidence intervals (CI) for test treatments (fed states: Treatments B, C, and D) compared with the reference treatment (fasted state: Treatment A) were constructed for AUC0-24, AUC0-t, AUC0-inf, and Cmax.

[2] = Phase 1 multiple oral dose study: safety and tolerability (TEAEs, serum chemistry)
[3] = 600 mg (n = 24), listed as omadacycline
[4] = 300, 450, 600 mg once daily x 5 days

## CN(C)c1cc(CNCC(C)(C)C)c(O)c2c1C[C@H]1C[C@H]3[C@H](N(C)C)C(O)=C(C(N)=O)C(=O)[C@@]3(O)C(O)=C1C2=O [Omadacycline, 9-[(2,2-dimethyl-propylamino)-methyl]-minocycline]
[1]; Treatment A: fasted overnight
  AUC0-24, Mean (Coefficient of Variation): 7.2 (28.1) mcg * h/mL
  AUC0-t, Mean (Coefficient of Variation): 7.2 (28.1) mcg * h/mL
[1]; human, in vivo, across all treatment periods, read-out: mean T1/2
  half-life: 13.5 to 13.8 h
[1]; human, Treatment A: fasted overnight (N = 30), read-out: AUC0-inf, Geometric LS Mean
  AUC(0-inf): 10600 ng·h/mL
[1]; human, Treatment A: fasted overnight, read-out: AUC0-24, Geometric LS Mean
  AUC(0-t): 7400 ng·h/mL
[1]; human, Treatment A: fasted overnight, read-out: AUC0-24, Mean (Coefficient of Variation)
  AUC(0-t): 7200 ng·h/mL
[1]; human, Treatment A: fasted overnight, read-out: AUC0-inf, Mean (Coefficient of Variation)
  AUC(0-inf): 10200 ng·h/mL
[1]; human, Treatment A: fasted overnight, read-out: AUC0-t, Geometric LS Mean
  AUC(0-t): 7400 ng·h/mL
[1]; human, Treatment A: fasted overnight, read-out: AUC0-t, Mean (Coefficient of Variation)
  AUC(0-t): 7200 ng·h/mL
[1]; human, Treatment A: fasted overnight, read-out: Cmax, Geometric LS Mean
  Cmax: 660 ng/mL
[1]; human, Treatment A: fasted overnight, read-out: Cmax, Mean (Coefficient of Variation)
  Cmax: 600 ng/mL
[1]; human, Treatment A: fasted overnight, read-out: Tmax
  Tmax: 2.5 h
[1]; human, Treatment B: high-fat nondairy meal 4 h before dosing, read-out: AUC0-24, Geometric LS Mean
  AUC(0-t): 6200 ng·h/mL
[1]; human, Treatment B: high-fat nondairy meal 4 h before dosing, read-out: AUC0-24, Mean (Coefficient of Variation)
  AUC(0-t): 6100 ng·h/mL
[1]; human, Treatment B: high-fat nondairy meal 4 h before dosing, read-out: AUC0-inf, Geometric LS Mean
  AUC(0-inf): 9000 ng·h/mL
[1]; human, Treatment B: high-fat nondairy meal 4 h before dosing, read-out: AUC0-inf, Mean (Coefficient of Variation)
  AUC(0-inf): 8800 ng·h/mL
[1]; human, Treatment B: high-fat nondairy meal 4 h before dosing, read-out: AUC0-t, Geometric LS Mean
  AUC(0-t): 6200 ng·h/mL
[1]; human, Treatment B: high-fat nondairy meal 4 h before dosing, read-out: AUC0-t, Mean (Coefficient of Variation)
  AUC(0-t): 6100 ng·h/mL
[1]; human, Treatment B: high-fat nondairy meal 4 h before dosing, read-out: Cmax, Geometric LS Mean
  Cmax: 560 ng/mL
[1]; human, Treatment B: high-fat nondairy meal 4 h before dosing, read-out: Cmax, Mean (Coefficient of Variation)
  Cmax: 600 ng/mL
[1]; human, Treatment B: high-fat nondairy meal 4 h before dosing, read-out: Tmax
  Tmax: 2.9 h
[1]; human, Treatment C: high-fat nondairy meal 2 h before dosing, read-out: AUC0-24, Geometric LS Mean
  AUC(0-t): 4300 ng·h/mL
[1]; human, Treatment C: high-fat nondairy meal 2 h before dosing, read-out: AUC0-24, Mean (Coefficient of Variation)
  AUC(0-t): 4200 ng·h/mL
[1]; human, Treatment C: high-fat nondairy meal 2 h before dosing, read-out: AUC0-inf, Geometric LS Mean
  AUC(0-inf): 6200 ng·h/mL
[1]; human, Treatment C: high-fat nondairy meal 2 h before dosing, read-out: AUC0-inf, Mean (Coefficient of Variation)
  AUC(0-inf): 6000 ng·h/mL
[1]; human, Treatment C: high-fat nondairy meal 2 h before dosing, read-out: AUC0-t, Geometric LS Mean
  AUC(0-t): 4300 ng·h/mL
[1]; human, Treatment C: high-fat nondairy meal 2 h before dosing, read-out: AUC0-t, Mean (Coefficient of Variation)
  AUC(0-t): 4200 ng·h/mL
[1]; human, Treatment C: high-fat nondairy meal 2 h before dosing, read-out: Cmax, Geometric LS Mean
  Cmax: 390 ng/mL
[1]; human, Treatment C: high-fat nondairy meal 2 h before dosing, read-out: Cmax, Mean (Coefficient of Variation)
  Cmax: 400 ng/mL
[1]; human, Treatment C: high-fat nondairy meal 2 h before dosing, read-out: Tmax
  Tmax: 2.9 h
[1]; human, Treatment D: high-fat meal incl. dairy 2 h before dosing, read-out: AUC0-24, Geometric LS Mean
  AUC(0-t): 2800 ng·h/mL
[1]; human, Treatment D: high-fat meal incl. dairy 2 h before dosing, read-out: AUC0-24, Mean (Coefficient of Variation)
  AUC(0-t): 2800 ng·h/mL
[1]; human, Treatment D: high-fat meal incl. dairy 2 h before dosing, read-out: AUC0-inf, Geometric LS Mean
  AUC(0-inf): 4000 ng·h/mL
[1]; human, Treatment D: high-fat meal incl. dairy 2 h before dosing, read-out: AUC0-inf, Mean (Coefficient of Variation)
  AUC(0-inf): 4000 ng·h/mL
[1]; human, Treatment D: high-fat meal incl. dairy 2 h before dosing, read-out: AUC0-t, Geometric LS Mean
  AUC(0-t): 2800 ng·h/mL
[1]; human, Treatment D: high-fat meal incl. dairy 2 h before dosing, read-out: AUC0-t, Mean (Coefficient of Variation)
  AUC(0-t): 2800 ng·h/mL
[1]; human, Treatment D: high-fat meal incl. dairy 2 h before dosing, read-out: Cmax, Geometric LS Mean
  Cmax: 270 ng/mL
[1]; human, Treatment D: high-fat meal incl. dairy 2 h before dosing, read-out: Cmax, Mean (Coefficient of Variation)
  Cmax: 300 ng/mL
[1]; human, Treatment D: high-fat meal incl. dairy 2 h before dosing, read-out: Tmax
  Tmax: 2.9 h
[1]; human, across all treatment periods, read-out: median Tmax
  Tmax: 2.5 to 2.9 h
[2]; 300 mg (n = 26)
  Any TEAE, % of subjects: (19.2) %
  Any TEAE, n of subjects: 5 n
  Most frequent TEAEs: Dizziness, %: (7.7) %
  Most frequent TEAEs: Nausea, %: (7.7) %
  Most frequent TEAEs: Vomiting, %: (7.7) %
  TEAEs leading to early discontinuation of study drug: All, %: (3.8) %
  TEAEs leading to early discontinuation of study drug: Nausea, %: (3.8) %
  TEAEs leading to early discontinuation of study drug: Vomiting, %: (3.8) %
  Treatment-related TEAE, % of subjects: (15.4) %
  Treatment-related TEAE, n of subjects: 4 n
[2]; 300 mg (n = 26), listed as omadacycline
  Treatment-related TEAE, % of subjects: 15.4%
[2]; 300 mg omadacycline
  median change in alanine aminotransferase (ALT) concentration between baseline and Day 5: −2.0 IU/L
[2]; 450 mg (n = 24)
  Any TEAE, % of subjects: (12.5) %
  Any TEAE, n of subjects: 3 n
  Most frequent TEAEs: ALT increased, %: (4.2) %
  Most frequent TEAEs: Nausea, %: (4.2) %
  TEAEs leading to early discontinuation of study drug: ALT increased, %: (4.2) %
  TEAEs leading to early discontinuation of study drug: All, %: (4.2) %
  Treatment-related TEAE, % of subjects: (8.3) %
  Treatment-related TEAE, n of subjects: 2 n
[2]; 450 mg (n = 24), listed as omadacycline
  Treatment-related TEAE, % of subjects: 8.3%
[2]; 450 mg omadacycline
  median change in alanine aminotransferase (ALT) concentration between baseline and Day 5: 5.0 IU/L
[2]; 600 mg (n = 24)
  Any TEAE, % of subjects: (25.0) %
  Any TEAE, n of subjects: 6 n
  Most frequent TEAEs: ALT increased, %: (4.2) %
  Most frequent TEAEs: Diarrhea, %: (8.3) %
  Most frequent TEAEs: Dizziness, %: (4.2) %
  Most frequent TEAEs: Nausea, %: (16.7) %
  Most frequent TEAEs: Vomiting, %: (4.2) %
  TEAEs leading to early discontinuation of study drug: All, %: (4.2) %
  TEAEs leading to early discontinuation of study drug: Lipase increased, %: (4.2) %
  Treatment-related TEAE, % of subjects: (25.0) %
  Treatment-related TEAE, n of subjects: 6 n
[2]; [3]
  Most frequent TEAEs: Nausea, %: 16.7%
  Treatment-related TEAE, % of subjects: 25.0%
[2]; 600 mg omadacycline
  median change in alanine aminotransferase (ALT) concentration between baseline and Day 5: 19.5 IU/L
[2]; [4]
  serious TEAEs (SAEs): no serious TEAEs (SAEs) reported
  severity of TEAEs: either mild or moderate in severity
[2]; Omadacycline Overall (n = 26)
  Any TEAE, % of subjects: (38.5) %
  Any TEAE, n of subjects: 10 n
  Most frequent TEAEs: ALT increased, %: (7.7) %
  Most frequent TEAEs: Diarrhea, %: (7.7) %
  Most frequent TEAEs: Dizziness, %: (11.5) %
  Most frequent TEAEs: Nausea, %: (23.1) %
  Most frequent TEAEs: Vomiting, %: (11.5) %
  TEAEs leading to early discontinuation of study drug: ALT increased, %: (3.8) %
  TEAEs leading to early discontinuation of study drug: All, %: (11.5) %
  TEAEs leading to early discontinuation of study drug: Lipase increased, %: (3.8) %
  TEAEs leading to early discontinuation of study drug: Nausea, %: (3.8) %
  TEAEs leading to early discontinuation of study drug: Vomiting, %: (3.8) %
  Treatment-related TEAE, % of subjects: (34.6) %
  Treatment-related TEAE, n of subjects: 9 n
[2]; Omadacycline Overall (n = 26), listed as omadacycline
  Any TEAE, % of subjects: 38.5%
[2]; omadacycline 300 and 450 mg dose groups
  nausea, % of subjects: ≤ 7.7%
[2]; subject who received 450 mg in Period 1 then 300 mg in Period 2
  highest individual ALT value: 150 IU/L
